Test results from ChEMBL document CHEMBL1125472, “5-lipoxygenase: properties, pharmacology, and the quinolinyl(bridged)aryl class of inhibitors” (J Med Chem, 1992).

Columns and labels:
[1] = species on record: Mus musculus; assay: The effective dose which inhibits […] induced contact hypersensitivity in mouse ears; format: functional
[2] = target: T1, Polyunsaturated fatty acid 5-lipoxygenase (Rattus norvegicus, UniProt P12527); assay: The compound was tested for inhibitory activity against 5-lipoxygenase in rat polymorphonuclear leukocytes[PMNS]; format: cell-based
T1 sequence (P12527 whole entry): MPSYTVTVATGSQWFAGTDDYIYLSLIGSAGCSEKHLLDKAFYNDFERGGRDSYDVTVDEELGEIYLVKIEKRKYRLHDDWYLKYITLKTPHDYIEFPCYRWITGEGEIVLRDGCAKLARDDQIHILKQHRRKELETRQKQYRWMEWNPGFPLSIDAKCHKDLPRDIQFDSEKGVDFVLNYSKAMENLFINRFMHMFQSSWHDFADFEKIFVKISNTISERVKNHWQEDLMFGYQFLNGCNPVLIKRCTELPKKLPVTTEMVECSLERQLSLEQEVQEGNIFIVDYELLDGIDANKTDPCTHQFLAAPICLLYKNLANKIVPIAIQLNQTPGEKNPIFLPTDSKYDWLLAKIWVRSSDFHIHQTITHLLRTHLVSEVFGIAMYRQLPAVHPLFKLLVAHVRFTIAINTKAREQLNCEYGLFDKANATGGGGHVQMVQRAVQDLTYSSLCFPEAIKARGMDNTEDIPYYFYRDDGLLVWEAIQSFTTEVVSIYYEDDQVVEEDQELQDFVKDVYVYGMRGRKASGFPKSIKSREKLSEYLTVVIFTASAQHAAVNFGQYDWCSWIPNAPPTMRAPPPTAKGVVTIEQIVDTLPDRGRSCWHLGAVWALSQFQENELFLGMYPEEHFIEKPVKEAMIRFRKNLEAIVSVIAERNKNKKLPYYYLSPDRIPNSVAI

[3] = target: T2, Cyclooxygenase (Rattus norvegicus, UniProt P35355+Q63921); assay: The compound was tested for inhibitory activity against cyclooxygenase in rat polymorphonuclear leukocytes[PMNS]; format: cell-based
T2 sequence (P35355 whole entry): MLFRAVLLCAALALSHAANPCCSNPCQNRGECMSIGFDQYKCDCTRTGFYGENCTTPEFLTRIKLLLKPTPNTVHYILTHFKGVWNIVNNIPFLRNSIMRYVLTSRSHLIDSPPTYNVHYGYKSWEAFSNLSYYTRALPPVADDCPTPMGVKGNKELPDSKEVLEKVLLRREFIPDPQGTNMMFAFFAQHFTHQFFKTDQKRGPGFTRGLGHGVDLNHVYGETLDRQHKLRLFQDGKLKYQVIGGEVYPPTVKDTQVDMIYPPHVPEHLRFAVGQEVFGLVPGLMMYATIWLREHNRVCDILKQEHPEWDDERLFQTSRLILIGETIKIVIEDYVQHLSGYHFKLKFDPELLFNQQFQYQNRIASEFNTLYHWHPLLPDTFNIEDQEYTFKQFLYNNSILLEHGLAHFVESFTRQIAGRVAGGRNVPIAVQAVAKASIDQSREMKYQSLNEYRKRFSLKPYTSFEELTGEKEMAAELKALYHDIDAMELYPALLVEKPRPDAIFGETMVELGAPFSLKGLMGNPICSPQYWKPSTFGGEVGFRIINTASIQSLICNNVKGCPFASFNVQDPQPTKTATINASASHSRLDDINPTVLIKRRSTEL
T2 sequence (Q63921 whole entry): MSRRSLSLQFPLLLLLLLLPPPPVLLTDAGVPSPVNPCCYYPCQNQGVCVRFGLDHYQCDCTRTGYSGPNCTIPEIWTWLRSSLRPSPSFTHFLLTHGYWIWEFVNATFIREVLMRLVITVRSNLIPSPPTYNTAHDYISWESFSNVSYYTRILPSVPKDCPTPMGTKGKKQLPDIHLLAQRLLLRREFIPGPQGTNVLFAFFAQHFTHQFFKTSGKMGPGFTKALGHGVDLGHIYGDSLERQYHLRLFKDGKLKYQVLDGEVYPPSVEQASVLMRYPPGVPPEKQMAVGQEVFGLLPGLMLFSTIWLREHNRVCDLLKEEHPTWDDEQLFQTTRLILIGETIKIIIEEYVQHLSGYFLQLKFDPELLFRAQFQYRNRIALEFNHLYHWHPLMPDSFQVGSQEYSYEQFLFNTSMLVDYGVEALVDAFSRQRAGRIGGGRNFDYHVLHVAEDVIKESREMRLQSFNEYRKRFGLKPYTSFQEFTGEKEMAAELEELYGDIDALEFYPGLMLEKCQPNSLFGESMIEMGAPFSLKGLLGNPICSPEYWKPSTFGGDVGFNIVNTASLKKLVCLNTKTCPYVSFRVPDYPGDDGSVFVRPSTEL

IC50 [2]: 400 nM
IC50 [3]: 6.3 µM
SMILES: c1ccc2nc(COc3cccc4ccccc34)ccc2c1
ED50 [1]: 0.4 mg ear-1
